Laboratory results: US9511073B2, “Aromatic amides and uses thereof” (TAXIS Pharmaceuticals, Inc., priority 2011, dated 2016)
Converted amounts (≈) assume the structure as drawn.

System: Staphylococcus aureus (Isolate ID ATCC 29213)
Experiment: Bacterial assay: MIC by broth microdilution or agar dilution (CLSI), S. aureus ATCC 29213
Assay type: cell-based
Details: Staphylococcus aureus, ATCC29213, read-out: S. aureus MIC (μg/mL) Activity Range, S. aureus (ATCC29213)
Description: Compounds are tested for antimicrobial activity by susceptibility testing in liquid or on solid media. Minimum inhibitory concentrations (MICs) for compounds against each strain are determined by the broth microdilution or agar dilution method according to the guidelines of the Clinical Laboratories and Standards Institute, formerly the National Committee for Clinical Laboratory Standards (Clinical Laboratories and Standards Institute. Methods for Dilution Antimicrobial Susceptibility Tests for Bacteria That Grow Aerobically; Approved Standard—Seventh Edition. Document M7-A7. CLSI, Wayne, Pa., 2006; Clinical Laboratories and Standards Institute). The bacterial strains tested include S. aureus (Staphylococcus aureus (Isolate ID ATCC 29213)) and an FtsZ mutant of this isolate (FtsZ-G196A Staphylococcus aureus (Isolate ID GG/190723/sa/1.2)). Compound MICs were determined to be in the following activity ranges “A” activity≦0.25 μg/mL; “B” activity>0.25 μg/mL-1.0 μg/mL; “C” activity>1.0 μg/mL-16 μg/mL; “D” activity>16 μg/mL and ND=not determined. The bracketed entries indicate entantiomer(s) and their activity.

Row | SMILES | MIC [µg/mL]
1 | NC(=O)c1c(F)ccc(O[C@H](CO)c2nc(-c3cncs3)c(Br)o2)c1F [Compound 247B, (R)-3-(1-(5-bromo-4-(thiazol-5-yl)oxazol-2-yl)-2-hydroxyethoxy)-2,6-difluorobenzamide] | > 16
2 | NC(=O)c1c(F)ccc(OC(CO)c2nc(-c3ccc(Cl)cc3)co2)c1F (centres unmarked) [Compound 10, 3-(1-(4-(4-chlorophenyl)oxazol-2-yl)-2-hydroxyethoxy)-2,6-difluorobenzamide] | > 16
3 | CSc1ccc(OC(CO)c2nc(-c3ccc(C(F)(F)F)cc3)c(SC)o2)c(F)c1C(N)=O (centres unmarked) [Compound 270, 2-fluoro-3-(2-hydroxy-1-(5-(methylthio)-4-(4-(trifluoromethyl)phenyl)oxazol-2-yl)ethoxy)-6-(methylthio)benzamide] | > 16
4 | COc1ccc(-c2nc(C(CO)Oc3ccc(F)c(C(N)=O)c3F)oc2Br)c(F)c1 (centres unmarked) [Compound 234, 3-(1-(5-bromo-4-(2-fluoro-4-methoxyphenyl)oxazol-2-yl)-2-hydroxyethoxy)-2,6-difluorobenzamide] | 0.25 to 1 (≈ 0.513 to 2.05 µM)
5 | CN(Cc1ccccn1)C(=O)OCC(Oc1ccc(F)c(C(N)=O)c1F)c1nc(-c2ccc(C(F)(F)F)cc2)c(Br)o1 (centres unmarked) [Compound 191, 2-(5-bromo-4-(4-(trifluoromethyl)phenyl)oxazol-2-yl)-2-(3-carbamoyl-2,4-difluorophenoxy)ethyl methyl(pyridin-2-ylmethyl)carbamate] | 1 to 16 (≈ 1.53 to 24.4 µM)
6 | COc1ccc(CCc2csc(C(CO)Oc3ccc(F)c(C(N)=O)c3F)n2)cc1 (centres unmarked) [Compound 262, 2,6-difluoro-3-(2-hydroxy-1-(4-(4-methoxyphenethyl)thiazol-2-yl)ethoxy)benzamide] | 1 to 16 (≈ 2.3 to 36.8 µM)
7 | NC(=O)c1c(F)ccc(OC(CCC(=O)O)c2nc(-c3ccc(C(F)(F)F)cc3)c(Br)o2)c1F (centres unmarked) [Compound 91, 4-(5-bromo-4-(4-(trifluoromethyl)phenyl)oxazol-2-yl)-4-(3-carbamoyl-2,4-difluorophenoxy)butanoic acid] | 1 to 16 (≈ 1.82 to 29.1 µM)
8 | CC(=O)OCC(Oc1ccc(F)c(C(N)=O)c1F)c1nc(-c2ccc(C(F)(F)F)cc2)oc1Br (centres unmarked) [Compound 137, 2-(5-bromo-2-(4-(trifluoromethyl)phenyl)oxazol-4-yl)-2-(3-carbamoyl-2,4-difluorophenoxy)ethyl acetate] | > 16
9 | NC(=O)c1c(F)ccc(OC(CO)c2nc(-c3ccc(F)c(F)c3)c(Br)o2)c1F (centres unmarked) [Compound 248, 3-(1-(5-bromo-4-(3,4-difluorophenyl)oxazol-2-yl)-2-hydroxyethoxy)-2,6-difluorobenzamide] | 1 to 16 (≈ 2.1 to 33.7 µM)
10 | CC(Oc1ccc(F)c(C(N)=O)c1F)c1nc(Br)c(-c2ccc(C(F)(F)F)cc2)o1 (centres unmarked) [Compound 123] | 1 to 16 (≈ 2.04 to 32.6 µM)
11 | NC(=O)c1c(F)ccc(OC(COC(=O)N2CCNCC2)c2nc(-c3ccc(C(F)(F)F)cc3)c(Br)o2)c1F (centres unmarked) [Compound 135, 2-(5-bromo-4-(4-(trifluoromethyl)phenyl)oxazol-2-yl)-2-(3-carbamoyl-2,4-difluorophenoxy)ethyl piperazine-1-carboxylate] | 1 to 16 (≈ 1.61 to 25.8 µM)
12 | CN(C)C(=O)c1ccc(-c2nc(C(CO)Oc3ccc(F)c(C(N)=O)c3F)oc2Br)cc1 (centres unmarked) [Compound 252, 4-(5-bromo-2-(1-(3-carbamoyl-2,4-difluorophenoxy)-2-hydroxyethyl)oxazol-4-yl)-N,N-dimethylbenzamide] | > 16
13 | NC(=O)CC(Oc1ccc(F)c(C(N)=O)c1F)c1nc(-c2ccc(C(F)(F)F)cc2)c(Br)o1 (centres unmarked) [Compound 96, 3-(3-amino-1-(5-bromo-4-(4-(trifluoromethyl)phenyl)oxazol-2-yl)-3-oxopropoxy)-2,6-difluorobenzamide] | 1 to 16 (≈ 1.87 to 29.9 µM)
14 | CCC(Oc1ccc(F)c(C(N)=O)c1F)c1nc(-c2ccc(Cl)cc2)c(Br)o1 (centres unmarked) [Compound 18, 3-(1-(5-bromo-4-(4-chlorophenyl)oxazol-2-yl)propoxy)-2,6-difluorobenzamide] | 1 to 16 (≈ 2.12 to 33.9 µM)
15 | NC(=O)c1c(F)ccc(OC(c2nc(-c3ccc(C(F)(F)F)cc3)c(Br)o2)C(O)CO)c1F (centres unmarked) [Compound 189, 3-(1-(5-bromo-4-(4-(trifluoromethyl)phenyl)oxazol-2-yl)-2,3-dihydroxypropoxy)-2,6-difluorobenzamide] | 1 to 16 (≈ 1.86 to 29.8 µM)
16 | CCC(Oc1ccc(F)c(C(N)=O)c1F)c1nc(CCOC(C)=O)oc1Br (centres unmarked) [Compound 121, 2-(5-bromo-4-(1-(3-carbamoyl-2,4-difluorophenoxy)propyl)oxazol-2-yl)ethyl acetate] | > 16
17 | NC(=O)c1c(F)ccc(O[C@H](CO)c2nc(-c3ccc4occc4c3)c(Br)o2)c1F [Compound 254B, (R)-3-(1-(4-(benzofuran-5-yl)-5-bromooxazol-2-yl)-2-hydroxyethoxy)-2,6-difluorobenzamide] | 1 to 16 (≈ 2.09 to 33.4 µM)
18 | CC(=O)OCC(Oc1ccc(F)c(C(N)=O)c1F)c1nc(-c2ccc(S(C)(=O)=O)cc2)c(Br)o1 (centres unmarked) [Compound 144, 2-(5-bromo-4-(4-(methylsulfonyl)phenyl)oxazol-2-yl)-2-(3-carbamoyl-2,4-difluorophenoxy)ethyl acetate] | > 16
19 | CC(=O)NNC(=O)CCC(Oc1ccc(F)c(C(N)=O)c1F)c1nc(-c2ccc(C(F)(F)F)cc2)c(Br)o1 (centres unmarked) [Compound 92, 3-(4-(2-acetylhydrazinyl)-1-(5-bromo-4-(4-(trifluoromethyl)phenyl)oxazol-2-yl)-4-oxobutoxy)-2,6-difluorobenzamide] | 1 to 16 (≈ 1.65 to 26.4 µM)
20 | NC(=O)c1c(F)ccc(O[C@H](CO)c2nc(-c3ccc(OC(F)F)cc3)c(Br)o2)c1F [Compound 273B, (R)-3-(1-(5-bromo-4-(4-(difluoromethoxy)phenyl)oxazol-2-yl)-2-hydroxyethoxy)-2,6-difluorobenzamide] | < 0.25
21 | C=CC(Oc1ccc(F)c(C(N)=O)c1F)c1nc(-c2ccc(C(F)(F)F)cc2)c(Br)o1 (centres unmarked) [Compound 102, 3-((1-(5-bromo-4-(4-(trifluoromethyl)phenyl)oxazol-2-yl)allyl)oxy)-2,6-difluorobenzamide] | 1 to 16 (≈ 1.99 to 31.8 µM)
22 | C=CCc1oc(C(CC)Oc2ccc(F)c(C(N)=O)c2F)nc1-c1ccc(Cl)cc1 (centres unmarked) [Compound 22, 3-(1-(5-allyl-4-(4-chlorophenyl)oxazol-2-yl)propoxy)-2,6-difluorobenzamide] | 1 to 16 (≈ 2.31 to 37 µM)
23 | CCC(Oc1ccc(F)c(C(N)=O)c1F)c1nc(CCO)oc1Br (centres unmarked) [Compound 122, 3-(1-(5-bromo-2-(2-hydroxyethyl)oxazol-4-yl)propoxy)-2,6-difluorobenzamide] | > 16
24 | Cc1nnc(CCC(Oc2ccc(F)c(C(N)=O)c2F)c2nc(-c3ccc(C(F)(F)F)cc3)c(Br)o2)o1 (centres unmarked) [Compound 97, 3-(1-(5-bromo-4-(4-(trifluoromethyl)phenyl)oxazol-2-yl)-3-(5-methyl-1,3,4-oxadiazol-2-yl)propoxy)-2,6-difluorobenzamide] | 1 to 16 (≈ 1.7 to 27.2 µM)
25 | C=CCc1oc(C(C)Oc2ccc(F)c(C(N)=O)c2F)nc1-c1ccc(OC(F)(F)F)cc1 (centres unmarked) [Compound 17, 3-(1-(5-allyl-4-(4-(trifluoromethoxy)phenyl)oxazol-2-yl)ethoxy)-2,6-difluorobenzamide] | 0.25 to 1 (≈ 0.534 to 2.14 µM)
26 | CN(CC(=O)OCC(Oc1ccc(F)c(C(N)=O)c1F)c1nc(-c2ccc(Cl)cc2)c(Cl)o1)C(=O)OC(C)(C)C (centres unmarked) [Compound 58, 2-(3-carbamoyl-2,4-difluorophenoxy)-2-(5-chloro-4-(4-chlorophenyl)oxazol-2-yl)ethyl 2-((tert-butoxycarbonyl)(methyl)amino)acetate] | 1 to 16 (≈ 1.67 to 26.6 µM)
